# According to ChEMBL document CHEMBL1149136, “Design and syntheses of 1,6-naphthalene derivatives as selective HCMV protease inhibitors” (J Med Chem, 2004):
# pIC50: −log10 of the molar value.
# Experiments:
# [1] = Inhibitory concentration against elastase; assay type: functional
# [2] = molecular target: T1, Capsid scaffolding protein (Human cytomegalovirus (strain AD169) (HHV-5) (Human herpesvirus 5), UniProt P16753); experiment: Inhibitory concentration against HCMV protease.; assay type: functional, Human herpesvirus 5 strain AD169
# T1 sequence (P16753 whole entry): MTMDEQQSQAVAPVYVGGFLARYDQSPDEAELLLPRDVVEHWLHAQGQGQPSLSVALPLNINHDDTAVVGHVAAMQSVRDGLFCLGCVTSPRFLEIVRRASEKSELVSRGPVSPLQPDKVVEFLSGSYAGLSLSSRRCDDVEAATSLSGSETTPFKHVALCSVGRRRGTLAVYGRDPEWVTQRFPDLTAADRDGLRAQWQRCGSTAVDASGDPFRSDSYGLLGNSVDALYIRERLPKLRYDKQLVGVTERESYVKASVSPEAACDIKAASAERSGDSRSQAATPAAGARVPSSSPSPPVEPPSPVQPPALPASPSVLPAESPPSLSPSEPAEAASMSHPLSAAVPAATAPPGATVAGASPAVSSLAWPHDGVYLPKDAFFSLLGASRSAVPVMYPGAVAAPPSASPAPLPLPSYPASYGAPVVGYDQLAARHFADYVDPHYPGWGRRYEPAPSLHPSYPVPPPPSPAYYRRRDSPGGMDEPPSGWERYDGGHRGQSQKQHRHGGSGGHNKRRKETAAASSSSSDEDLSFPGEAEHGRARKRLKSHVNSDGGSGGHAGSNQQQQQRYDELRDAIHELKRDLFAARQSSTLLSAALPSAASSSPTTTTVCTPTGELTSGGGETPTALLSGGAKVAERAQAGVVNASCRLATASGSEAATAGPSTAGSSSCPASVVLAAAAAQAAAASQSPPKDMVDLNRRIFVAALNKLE
# [3] = Compound was tested for inhibition of chymotrypsinogen
# [4] = molecular target: Serine protease 1 (Homo sapiens) (UniProt P07477); experiment: Compound was tested for inhibition of trypsin
# Sequence of Serine protease 1 (Homo sapiens) (P07477 whole entry): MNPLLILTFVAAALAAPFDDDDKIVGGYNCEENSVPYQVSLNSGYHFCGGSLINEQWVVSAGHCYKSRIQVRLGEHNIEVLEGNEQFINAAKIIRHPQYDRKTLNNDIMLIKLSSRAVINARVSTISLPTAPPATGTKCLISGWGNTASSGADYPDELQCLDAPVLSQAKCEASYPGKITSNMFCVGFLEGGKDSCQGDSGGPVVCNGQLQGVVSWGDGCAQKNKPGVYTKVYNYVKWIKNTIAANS
Structure (SMILES),pIC50 [1],pIC50 [2],Activity [3] [µM],Activity [4] [µM]
O=S(=O)(Nc1ccc2c(/C=C/c3cc(Cl)c4ccccc4n3)cccc2c1)C(F)(F)F,< 4.30,4.98,–,–
O=C(Nc1ccc2c(/C=C/c3ccc4cc(Cl)ccc4n3)cccc2c1)Oc1ccccc1,–,< 4.30,–,–
O=C(O)c1ccc(CNc2ccc3c(/C=C/c4ccc5ccc(Cl)cc5n4)cccc3c2)cc1,–,5.57,–,–
O=C(O)c1ccc(C(=O)Nc2ccc3c(COc4ccc(Br)cc4)cccc3c2)cc1,–,4.67,–,–
O=C(Nc1ccc2c(/C=C/c3ccc4ccc(Cl)cc4n3)cccc2c1)NS(=O)(=O)c1ccccc1,–,5.17,–,–
O=S(=O)(Nc1ccc2c(/C=C/c3ccc(Cl)cc3)cccc2c1)C(F)(F)F,< 4.30,5.37,–,–
Cc1ccc2nc(/C=C/c3cccc4cc(NS(=O)(=O)C(F)(F)F)ccc34)ccc2c1,< 4.30,5.20,–,–
O=C(O)c1ccc(C(=O)Nc2ccc3c(OCc4cccc(C(F)(F)F)c4)cccc3c2)cc1,–,5.13,> 50,> 80
Cc1ccc(S(=O)(=O)NC(=O)Nc2ccc3c(/C=C/c4ccc5ccc(Cl)cc5n4)cccc3c2)cc1,–,5.08,–,–
COc1cccc(/C=C/c2cccc3cc(NS(=O)(=O)C(F)(F)F)ccc23)c1,< 4.30,5.18,–,–
O=S(=O)(Nc1ccc2c(/C=C/c3ccccc3)cccc2c1)C(F)(F)F,< 4.30,5.12,–,–
O=S(=O)(Nc1ccc2c(/C=C/c3cccc(C(F)(F)F)c3)cccc2c1)C(F)(F)F,< 4.30,5.19,–,–
O=C(O)c1ccc(C(=O)Nc2ccc3c(OCc4cccc(Cl)c4)cccc3c2)cc1,–,5.29,> 50,> 80
O=C(Nc1ccc2c(/C=C/c3ccc4ccc(Cl)cc4n3)cccc2c1)NS(=O)(=O)c1ccc(Cl)cc1,–,5.33,–,–
O=S(=O)(Nc1ccc2c(/C=C/c3ccc4ccccc4c3)cccc2c1)C(F)(F)F,< 4.30,4.82,–,–
CC(=O)Nc1ccc2c(/C=C/c3ccc4cc(Cl)ccc4n3)cccc2c1,–,4.37,–,–
CN(c1ccc2c(/C=C/c3ccc4cc(Cl)ccc4n3)cccc2c1)S(=O)(=O)C(F)(F)F,–,< 4.30,–,–
COc1ccc2nc(/C=C/c3cccc4cc(NS(=O)(=O)C(F)(F)F)ccc34)ccc2c1,< 4.30,5.47,–,–
CN(C)c1ccc2nc(/C=C/c3cccc4cc(NS(=O)(=O)C(F)(F)F)ccc34)ccc2c1,< 4.30,5.43,–,–

Structure (SMILES),pIC50 [1],pIC50 [2],Activity [3] [µM],Activity [4] [µM]
O=S(=O)(Nc1ccc2c(/C=C/c3ccc4cc(Cl)ccc4n3)cccc2c1)C(F)(F)F,< 4.30,5.49,–,–
O=C(O)c1ccc(C(=O)Nc2ccc3c(COc4cccc(C(F)(F)F)c4)cccc3c2)cc1,–,4.82,–,–
O=C(O)c1ccc(CNc2ccc3c(COc4ccccc4)cccc3c2)cc1,–,5.32,> 50,> 80
O=S(=O)(Nc1ccc2c(/C=C/c3ccc4ccccc4n3)cccc2c1)C(F)(F)F,< 4.30,5.02,–,–
CS(=O)(=O)Nc1ccc2c(/C=C/c3ccc4cc(Cl)ccc4n3)cccc2c1,–,< 4.30,–,–
O=C(O)c1ccc(CNc2ccc3c(/C=C/c4cccc(C(F)(F)F)c4)cccc3c2)cc1,–,5.16,–,–
O=C(O)c1ccc(C(=O)Nc2ccc3c(COc4cccc(Cl)c4)cccc3c2)cc1,–,4.82,–,–
O=C(O)c1ccc(C(=O)Nc2ccc3c(/C=C/c4cccc(C(F)(F)F)c4)cccc3c2)cc1,–,5.16,–,–
O=C(Nc1ccc2c(/C=C/c3ccc4ccc(Cl)cc4n3)cccc2c1)c1ccccc1,–,< 4.30,–,–
O=S(=O)(Nc1ccc2c(/C=C/c3ccc4cccc(Cl)c4n3)cccc2c1)C(F)(F)F,< 4.30,5.49,–,–
Nc1ccc2c(/C=C/c3ccc4ccc(Cl)cc4n3)cccc2c1,–,< 4.30,–,–
O=S(=O)(Nc1ccc2c(/C=C/c3ccc4ccc(Cl)cc4n3)cccc2c1)C(F)(F)F,< 4.30,4.82,–,–
O=C(O)c1ccc(C(=O)Nc2ccc3c(OCc4cccc(Br)c4)cccc3c2)cc1,–,5.21,> 50,> 80
O=S(=O)(Nc1ccc2c(/C=C/c3ccccn3)cccc2c1)C(F)(F)F,< 4.30,4.18,> 160,–
O=C(O)c1ccc2c(/C=C/c3ccc4ccccc4n3)cccc2c1,–,< 4.30,–,–
O=C(O)c1ccc(CNc2ccc3c(COc4cccc(Cl)c4)cccc3c2)cc1,–,5.51,> 50,> 80
O=C(O)c1ccc(CNc2ccc3c(COc4ccc(Br)cc4)cccc3c2)cc1,–,5.55,> 50,> 80
O=C(O)c1ccc(C(=O)Nc2ccc3c(/C=C/c4ccc5ccc(Cl)cc5n4)cccc3c2)cc1,–,4.76,–,–
